According to ChEMBL document CHEMBL2046376, “Synthesis and antimicrobial activity of amide derivatives of polyether antibiotic-salinomycin” (2012):
≈ marks a conversion by molar mass, not a printed value. Calls of active or inactive are those of the source. The calls are words filed in the database; no cut-off is given here.

Tests used:
Type in all cases: functional
Staphylococcus aureus [1] = assay: Antibacterial activity against hospital-acquired methicillin-sensitive Staphylococcus aureus 441/11 after 18 hrs by twofold serial agar dilution technique; conditions: 441/11, 18 h
Staphylococcus aureus [2] = assay: Antibacterial activity against Staphylococcus aureus ATCC 29213 after 18 hrs by twofold serial agar dilution technique; conditions: ATCC 29213, 18 h
Staphylococcus aureus [3] = assay: Antibacterial activity against hospital-acquired methicillin-sensitive Staphylococcus aureus 445/11 after 18 hrs by twofold serial agar dilution technique; conditions: 445/11, 18 h
Staphylococcus aureus [4] = assay: Antibacterial activity against hospital-acquired methicillin-resistant Staphylococcus aureus 481/11 after 18 hrs by twofold serial agar dilution technique; conditions: 481/11, 18 h
Pseudomonas aeruginosa [5] = assay: Antibacterial activity against Pseudomonas aeruginosa NCTC 6749 after 18 hrs by twofold serial agar dilution technique
Staphylococcus aureus [6] = assay: Antibacterial activity against Staphylococcus aureus ATCC 25923 after 18 hrs by twofold serial agar dilution technique; conditions: ATCC 25923, 18 h
Staphylococcus aureus [7] = assay: Antibacterial activity against hospital-acquired methicillin-sensitive Staphylococcus aureus 444/11 after 18 hrs by twofold serial agar dilution technique; conditions: 444/11, 18 h
Staphylococcus aureus [8] = assay: Antibacterial activity against hospital-acquired methicillin-resistant Staphylococcus aureus 450/11 after 18 hrs by twofold serial agar dilution technique; conditions: 450/11, 18 h
Staphylococcus aureus [9] = assay: Antibacterial activity against hospital-acquired methicillin-resistant Staphylococcus aureus 482/11 after 18 hrs by twofold serial agar dilution technique; conditions: 482/11, 18 h
Staphylococcus aureus [10] = assay: Antibacterial activity against hospital-acquired methicillin-resistant Staphylococcus aureus 394/10 after 18 hrs by twofold serial agar dilution technique; conditions: 394/10, 18 h
[11] = system: Staphylococcus epidermidis; assay: Antibacterial activity against Staphylococcus epidermidis ATCC 35984 after 18 hrs by twofold serial agar dilution technique; conditions: ATCC 35984, 18 h
Staphylococcus aureus [12] = assay: Antibacterial activity against hospital-acquired methicillin-sensitive Staphylococcus aureus 446/11 after 18 hrs by twofold serial agar dilution technique; conditions: 446/11, 18 h
Staphylococcus aureus [13] = assay: Antibacterial activity against Staphylococcus aureus ATCC 25923 assessed as zone of inhibition at 400 ug/disc after 18 hrs by disc diffusion method; conditions: ATCC 25923, 18 h, read-out: DIZ
Staphylococcus aureus [14] = assay: Antibacterial activity against Staphylococcus aureus ATCC 6538 assessed as zone of inhibition at 400 ug/disc after 18 hrs by disc diffusion method; conditions: ATCC 6538, 18 h, read-out: DIZ
Candida albicans [15] = assay: Antifungal activity against Candida albicans ATCC 10231 after 24 hrs by twofold serial agar dilution technique
Staphylococcus aureus [16] = assay: Antibacterial activity against hospital-acquired methicillin-sensitive Staphylococcus aureus 440/11 after 18 hrs by twofold serial agar dilution technique; conditions: 440/11, 18 h
[17] = system: Bordetella bronchiseptica; assay: Antibacterial activity against Bordetella bronchiseptica ATCC 4617 after 18 hrs by twofold serial agar dilution technique
Staphylococcus aureus [18] = assay: Antibacterial activity against Staphylococcus aureus ATCC 6538 after 18 hrs by twofold serial agar dilution technique; conditions: ATCC 6538, 18 h
Proteus vulgaris = assay: Antibacterial activity against Proteus vulgaris NCTC 4635 after 18 hrs by twofold serial agar dilution technique
Candida parapsilosis = assay: Antifungal activity against Candida parapsilosis ATCC 22019 after 24 hrs by twofold serial agar dilution technique
Escherichia coli [19] = assay: Antibacterial activity against Escherichia coli NCTC 8196 after 18 hrs by twofold serial agar dilution technique
Staphylococcus aureus [20] = assay: Antibacterial activity against hospital-acquired methicillin-sensitive Staphylococcus aureus 449/11 after 18 hrs by twofold serial agar dilution technique; conditions: 449/11, 18 h
Staphylococcus aureus [21] = assay: Antibacterial activity against Staphylococcus aureus NCTC 4163 after 18 hrs by twofold serial agar dilution technique; conditions: NCTC 4163, 18 h
Staphylococcus aureus [22] = assay: Antibacterial activity against hospital-acquired methicillin-resistant Staphylococcus aureus 399/10 after 18 hrs by twofold serial agar dilution technique; conditions: 399/10, 18 h
Staphylococcus aureus [23] = assay: Antibacterial activity against hospital-acquired methicillin-sensitive Staphylococcus aureus 447/11 after 18 hrs by twofold serial agar dilution technique; conditions: 447/11, 18 h
Candida albicans [24] = assay: Antifungal activity against Candida albicans ATCC 90028 after 24 hrs by twofold serial agar dilution technique
[25] = system: Staphylococcus epidermidis; assay: Antibacterial activity against Staphylococcus epidermidis ATCC 12228 assessed as zone of inhibition at 400 ug/disc after 18 hrs by disc diffusion method; conditions: ATCC 12228, 18 h, read-out: DIZ
Staphylococcus aureus [26] = assay: Antibacterial activity against hospital-acquired methicillin-sensitive Staphylococcus aureus 448/11 after 18 hrs by twofold serial agar dilution technique; conditions: 448/11, 18 h
Escherichia coli [27] = assay: Antibacterial activity against Escherichia coli ATCC 25922 after 18 hrs by twofold serial agar dilution technique
Staphylococcus aureus [28] = assay: Antibacterial activity against hospital-acquired methicillin-resistant Staphylococcus aureus 400/10 after 18 hrs by twofold serial agar dilution technique; conditions: 400/10, 18 h
Staphylococcus aureus [29] = assay: Antibacterial activity against methicillin-resistant Staphylococcus aureus clinical isolate
Pseudomonas aeruginosa [30] = assay: Antibacterial activity against Pseudomonas aeruginosa ATCC 27853 after 18 hrs by twofold serial agar dilution technique
Staphylococcus aureus [31] = assay: Antibacterial activity against hospital-acquired methicillin-resistant Staphylococcus aureus 451/11 after 18 hrs by twofold serial agar dilution technique; conditions: 451/11, 18 h
Staphylococcus aureus [32] = assay: Antibacterial activity against Staphylococcus aureus NCTC 4163 assessed as zone of inhibition at 400 ug/disc after 18 hrs by disc diffusion method; conditions: NCTC 4163, 18 h, read-out: DIZ
Staphylococcus aureus [33] = assay: Antibacterial activity against hospital-acquired methicillin-resistant Staphylococcus aureus 452/11 after 18 hrs by twofold serial agar dilution technique; conditions: 452/11, 18 h
Pseudomonas aeruginosa [34] = assay: Antibacterial activity against Pseudomonas aeruginosa ATCC 15442 after 18 hrs by twofold serial agar dilution technique
Staphylococcus aureus [35] = assay: Antibacterial activity against Staphylococcus aureus ATCC 29213 assessed as zone of inhibition at 400 ug/disc after 18 hrs by disc diffusion method; conditions: ATCC 29213, 18 h, read-out: DIZ
Staphylococcus aureus [36] = assay: Antibacterial activity against hospital-acquired methicillin-resistant Staphylococcus aureus 393/10 after 18 hrs by twofold serial agar dilution technique; conditions: 393/10, 18 h
Staphylococcus aureus [37] = assay: Antibacterial activity against hospital-acquired methicillin-sensitive Staphylococcus aureus 442/11 after 18 hrs by twofold serial agar dilution technique; conditions: 442/11, 18 h
Escherichia coli [38] = assay: Antibacterial activity against Escherichia coli ATCC 10538 after 18 hrs by twofold serial agar dilution technique
Staphylococcus aureus [39] = assay: Antibacterial activity against hospital-acquired methicillin-resistant Staphylococcus aureus 401/10 after 18 hrs by twofold serial agar dilution technique; conditions: 401/10, 18 h
Staphylococcus aureus [40] = assay: Antibacterial activity against hospital-acquired methicillin-sensitive Staphylococcus aureus 443/11 after 18 hrs by twofold serial agar dilution technique; conditions: 443/11, 18 h
[41] = system: Staphylococcus epidermidis; assay: Antibacterial activity against Staphylococcus epidermidis ATCC 12228 after 18 hrs by twofold serial agar dilution technique; conditions: ATCC 12228, 18 h
[42] = system: Staphylococcus epidermidis; assay: Antibacterial activity against Staphylococcus epidermidis ATCC 35984 assessed as zone of inhibition at 400 ug/disc after 18 hrs by disc diffusion method; conditions: ATCC 35984, 18 h, read-out: DIZ

CC[C@@H](C(=O)[C@@H](C)[C@@H](O)[C@H](C)[C@@H]1O[C@@H]([C@@H](CC)C(=O)O)CC[C@@H]1C)[C@H]1O[C@]2(C=C[C@@H](O)[C@]3(CC[C@@](C)([C@H]4CC[C@](O)(CC)[C@H](C)O4)O3)O2)[C@H](C)C[C@@H]1C [SALINOMYCIN]
MIC (Staphylococcus aureus [1]): 2 µg/mL (≈ 2.66 µM)
MIC (Staphylococcus aureus [2]): 2 µg/mL (≈ 2.66 µM)
MIC (Staphylococcus aureus [3]): 1 µg/mL (≈ 1.33 µM)
MIC (Staphylococcus aureus [4]): 1 µg/mL (≈ 1.33 µM)
Activity (Pseudomonas aeruginosa [5]): inactive
MIC (Staphylococcus aureus [6]): 2 µg/mL (≈ 2.66 µM)
MIC (Staphylococcus aureus [7]): 2 µg/mL (≈ 2.66 µM)
MIC (Staphylococcus aureus [8]): 2 µg/mL (≈ 2.66 µM)
MIC (Staphylococcus aureus [9]): 2 µg/mL (≈ 2.66 µM)
MIC (Staphylococcus aureus [10]): 2 µg/mL (≈ 2.66 µM)
MIC [11]: 2 µg/mL (≈ 2.66 µM)
MIC (Staphylococcus aureus [12]): 1 µg/mL (≈ 1.33 µM)
zone of inhibition at 400 µg/disc (Staphylococcus aureus [13]): 31 mm
zone of inhibition at 400 µg/disc (Staphylococcus aureus [14]): 30 mm
Activity (Candida albicans [15]): inactive
MIC (Staphylococcus aureus [16]): 1 µg/mL (≈ 1.33 µM)
Activity [17]: inactive
MIC (Staphylococcus aureus [18]): 2 µg/mL (≈ 2.66 µM)
Activity (Proteus vulgaris): inactive
Activity (Candida parapsilosis): inactive
Activity (Escherichia coli [19]): inactive
MIC (Staphylococcus aureus [20]): 1 µg/mL (≈ 1.33 µM)
MIC (Staphylococcus aureus [21]): 2 µg/mL (≈ 2.66 µM)
MIC (Staphylococcus aureus [22]): 1 µg/mL (≈ 1.33 µM)
MIC (Staphylococcus aureus [23]): 2 µg/mL (≈ 2.66 µM)
Activity (Candida albicans [24]): inactive
zone of inhibition at 400 µg/disc [25]: 28 mm
MIC (Staphylococcus aureus [26]): 2 µg/mL (≈ 2.66 µM)
Activity (Escherichia coli [27]): inactive
MIC (Staphylococcus aureus [28]): 1 µg/mL (≈ 1.33 µM)
MIC (Staphylococcus aureus [29]): 1 µg/mL (≈ 1.33 µM)
Activity (Pseudomonas aeruginosa [30]): inactive
MIC (Staphylococcus aureus [31]): 2 µg/mL (≈ 2.66 µM)
zone of inhibition at 400 µg/disc (Staphylococcus aureus [32]): 33 mm
MIC (Staphylococcus aureus [33]): 1 µg/mL (≈ 1.33 µM)
Activity (Pseudomonas aeruginosa [34]): inactive
zone of inhibition at 400 µg/disc (Staphylococcus aureus [35]): 29 mm
MIC (Staphylococcus aureus [36]): 2 µg/mL (≈ 2.66 µM)
MIC (Staphylococcus aureus [37]): 2 µg/mL (≈ 2.66 µM)
Activity (Escherichia coli [38]): inactive
MIC (Staphylococcus aureus [39]): 1 µg/mL (≈ 1.33 µM)
MIC (Staphylococcus aureus [40]): 2 µg/mL (≈ 2.66 µM)
MIC [41]: 2 µg/mL (≈ 2.66 µM)
zone of inhibition at 400 µg/disc [42]: 30 mm

CC[C@@]1([C@@H]2O[C@@H]([C@H]3O[C@@](O)(CO)[C@H](C)C[C@@H]3C)C[C@@H]2C)CC[C@H]([C@]2(C)CC[C@]3(C[C@H](O)[C@@H](C)[C@@H]([C@@H](C)[C@@H](OC)[C@H](C)C(=O)O)O3)O2)O1 [MONENSIN]
MIC (Staphylococcus aureus [1]): 4 µg/mL (≈ 5.96 µM)
MIC (Staphylococcus aureus [3]): 2 µg/mL (≈ 2.98 µM)
MIC (Staphylococcus aureus [4]): 2 µg/mL (≈ 2.98 µM)
MIC (Staphylococcus aureus [7]): 4 µg/mL (≈ 5.96 µM)
MIC (Staphylococcus aureus [8]): 2 µg/mL (≈ 2.98 µM)
MIC (Staphylococcus aureus [9]): 2 µg/mL (≈ 2.98 µM)
MIC (Staphylococcus aureus [10]): 4 µg/mL (≈ 5.96 µM)
MIC (Staphylococcus aureus [12]): 2 µg/mL (≈ 2.98 µM)
MIC (Staphylococcus aureus [16]): 2 µg/mL (≈ 2.98 µM)
MIC (Staphylococcus aureus [20]): 2 µg/mL (≈ 2.98 µM)
MIC (Staphylococcus aureus [22]): 2 µg/mL (≈ 2.98 µM)
MIC (Staphylococcus aureus [23]): 2 µg/mL (≈ 2.98 µM)
MIC (Staphylococcus aureus [26]): 2 µg/mL (≈ 2.98 µM)
MIC (Staphylococcus aureus [28]): 2 µg/mL (≈ 2.98 µM)
MIC (Staphylococcus aureus [31]): 4 µg/mL (≈ 5.96 µM)
MIC (Staphylococcus aureus [33]): 2 µg/mL (≈ 2.98 µM)
MIC (Staphylococcus aureus [36]): 4 µg/mL (≈ 5.96 µM)
MIC (Staphylococcus aureus [37]): 2 µg/mL (≈ 2.98 µM)
MIC (Staphylococcus aureus [39]): 2 µg/mL (≈ 2.98 µM)
MIC (Staphylococcus aureus [40]): 4 µg/mL (≈ 5.96 µM)
